Source: patent US20240132431A1, “METHOD FOR ALKYLATING ACIDIC FUNCTIONAL GROUP” (Chugai Seiyaku Kabushiki Kaisha, priority 2021, published 2024)
Read-outs that look alike come from different tables or passages of the source.

Experiments:
[1] = target: T1, Bcl-2 protein (Recombinant Human Bcl-2 Protein) (Homo sapiens, UniProt P10415); assay: Binding evaluation of mixture library compounds to Bcl-2 using AS-MS (affinity selection mass spectrometry); conditions: for ASMS ratio (%) n = 1: replicate n = 1; for ASMS ratio (%) n = 1 / ASMS ratio (%) n = 2: ASMS Ratio(%)=(A−C)/B×100; for ASMS ratio (%) n = 2: replicate n = 2
T1 construct: purchased Novus NBP2-34889
T1 sequence (P10415 whole entry): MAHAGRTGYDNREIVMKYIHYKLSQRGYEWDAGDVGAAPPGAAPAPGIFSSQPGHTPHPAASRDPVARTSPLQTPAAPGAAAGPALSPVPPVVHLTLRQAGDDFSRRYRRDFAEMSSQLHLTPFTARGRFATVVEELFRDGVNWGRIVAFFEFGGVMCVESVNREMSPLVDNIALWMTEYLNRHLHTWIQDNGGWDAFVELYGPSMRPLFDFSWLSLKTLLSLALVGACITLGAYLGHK
Method in brief: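 Readout is ASMS Ratio (%), (A−C)/B×100, from reversed-phase LC/MS of SEC-passed extracts, with protein-free unfiltered standard (B) and protein-free SEC blank (C). Recombinant human Bcl-2 at 20 μM final met ~1200 pooled compounds at […] each for 1 h, 23° C., dark, in Tris-HCl pH 7.4 buffer.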

human Bcl-2 protein = target: T2, human Bcl-2 protein (Homo sapiens, UniProt P10415); assay: Binding evaluation of compounds to Bcl-2 by surface plasmon resonance (SPR)
T2 construct: purchased Novus Biologicals
T2 sequence (P10415 whole entry): as above
Method: In order to analyze the binding affinity of the compounds shown in [Table AK-O1] and synthesized in Example 8 to Bcl-2, the surface plasmon resonance method was used. Biacore T200 (GE Healthcare) was used as the apparatus, and HBS (10 mM HEPES-NaOH, 150 mM NaCl, pH 7.4) to which 1 mM DTT, 3 mM EDTA, 0.01% Tween 20, and 4% DMSO had been added was used as the running buffer. The human Bcl-2 protein (Novus Biologicals) was biotinylated using EZ-Link Sulfo-NHS-LC-LC-biotin (Thermofisher scientific) and immobilized on the surface of Sensor Chip SA (GE Healthcare). Thereafter, compound solutions of multiple concentrations and the running buffer (blank) were added to the Bcl-2 immobilized surface to obtain the binding response of the compounds. The measurement was carried out at 15° C.

[2] = cited from earlier work; for Base/pKBH^+ (CH3CN): pKa of conjugate acid of the base in CH3CN; for Base/pKBH+ (CH3CN): transcribed from the Aldrich web site for phosphazene bases
[3] = first value in parentheses, (A−C)/B×100, 1200-compound mixture, Bcl-2 20 μM
[4] = second value in parentheses, (A−C)/B×100, 1200-compound mixture, Bcl-2 20 μM
[5] = Biacore T200, biotinylated human Bcl-2 immobilized on Sensor Chip SA, 15° C., compounds found by AS-MS evaluation of synthesized library, read-out: Equilibrium dissociation constant KD
[6] = Biacore T200, biotinylated human Bcl-2 immobilized on Sensor Chip SA, 15° C., compounds found by AS-MS evaluation of synthesized library
[7] = Biacore T200, 15° C., compounds synthesized before performing library synthesis
[8] = binding to Bcl-2, compounds evaluated before library synthesis, read-out: KD
[9] = AS-MS on the mixture of 1200 library compounds
[10] = Table 3-5-3, from Aldrich web site and Chem. Eur. J. 2021, 27, 4216-4229
[11] = Table 3-5-1, transcribed from Aldrich web site
[12] = Table 3-5-2, transcribed from Aldrich web site

ASMS ratio (%) n = 1 ([1]; AS-MS, mixture library, Bcl-2) [%] | ASMS ratio (%) n = 2 ([1]; AS-MS, mixture library, Bcl-2) [%] | ASMS ratio (%) [1, 3] [%] | ASMS ratio (%) [1, 4] [%] | SMILES | Base/pKBH^+ (CH3CN) [2, 10] | further results
61.6 | 90.8 | 61.6 | 90.8 | CCOc1cncc(-c2ccc(CN3CCN(c4ccc(C(=O)NS(=O)(=O)c5ccc(NCCSc6ccccc6)c([N+](=O)[O-])c5)cc4)CC3)cc2C)c1 [B2Q048-01, 4-[4-[[4-(5-ethoxypyridin-3-yl)-3-methylphenyl]methyl]piperazin-1-yl]-N-[3-nitro-4-(2-phenylsulfanylethylamino)phenyl]sulfonylbenzamide] |  | Kd (human Bcl-2 protein; [5]): 0.48 µM; equilibrium dissociation constant KD compared to compound B2Q045-01 (human Bcl-2 protein; binding to Bcl-2): smaller equilibrium dissociation constants KD
44.1 | 65.0 | 44.1 | 65.0 | CCOc1cncc(-c2ccc(CN3CCN(c4ccc(C(=O)NS(=O)(=O)c5ccc(NCCSc6ccccc6)c([N+](=O)[O-])c5)cc4)CC3)c(OC)c2)c1 [B2Q054-01, 4-[4-[[4-(5-ethoxypyridin-3-yl)-2-methoxyphenyl]methyl]piperazin-1-yl]-N-[3-nitro-4-(2-phenylsulfanylethylamino)phenyl]sulfonylbenzamide] |  | Kd (human Bcl-2 protein; [5]): 1.27 µM
40.7 | 36.9 | 40.7 | 36.9 | CCOc1cncc(-c2ccc(CN3CCN(c4ccc(C(=O)NS(=O)(=O)c5ccc(NCCSc6ccccc6)c([N+](=O)[O-])c5)cc4)CC3)c3ccccc23)c1 [B2Q066-01, 4-[4-[[4-(5-ethoxypyridin-3-yl)naphthalen-1-yl]methyl]piperazin-1-yl]-N-[3-nitro-4-(2-phenylsulfanylethylamino)phenyl]sulfonylbenzamide] |  | Kd (human Bcl-2 protein; [5]): 0.95 µM
61.6 | 90.8 | 61.6 | 90.8 | CCOc1cncc(-c2ccc(C(C)N3CCN(c4ccc(C(=O)NS(=O)(=O)c5ccc(NCCSc6ccccc6)c([N+](=O)[O-])c5)cc4)CC3)cc2)c1 (stereo not shown) [B2Q098-01, 4-[4-[1-[4-(5-ethoxypyridin-3-yl)phenyl]ethyl]piperazin-1-yl]-N-[3-nitro-4-(2-phenylsulfanylethylamino)phenyl]sulfonylbenzamide] |  | Equilibrium dissociation constant KD (human Bcl-2 protein; [6]): Binding not observed
 |  | 22.4 | 25.4 | CCOc1cncc(-c2ccc(CN3CCN(c4ccc(C(=O)NS(=O)(=O)c5ccc(NCCSc6ccccc6)c(C(F)(F)F)c5)nn4)CC3)cc2C)c1 [B2R074-01, 6-[4-[[4-(5-ethoxypyridin-3-yl)-3-methylphenyl]methyl]piperazin-1-yl]-N-[4-(2-phenylsulfanylethylamino)-3-(trifluoromethyl)phenyl]sulfonylpyridazine-3-carboxamide] |  | ASMS ratio (%) ([1]; n = 1): 22.4%; ASMS ratio (%) ([1]; n = 2): 25.4%; Equilibrium dissociation constant KD (human Bcl-2 protein; [6]): Binding not observed

Further lines, the compound ahead of its results:

SMILES | ASMS ratio (%) n = 1 ([1]; AS-MS, mixture library, Bcl-2) [%] | ASMS ratio (%) n = 2 ([1]; AS-MS, mixture library, Bcl-2) [%] | ASMS ratio (%) [1, 3] [%] | ASMS ratio (%) [1, 4] [%] | Base/pKBH^+ (CH3CN) [2, 10] | further results
CCOc1cccc(-c2ccc(CN3CCN(c4ccc(C(=O)NS(=O)(=O)c5ccc(NCCSc6ccccc6)c([N+](=O)[O-])c5)cc4)CC3)c(OC)c2)c1 [B2Q053-01, 4-[4-[[4-(3-ethoxyphenyl)-2-methoxyphenyl]methyl]piperazin-1-yl]-N-[3-nitro-4-(2-phenylsulfanylethylamino)phenyl]sulfonylbenzamide] | 22.4 | 15.5 | 22.4 | 15.5 |  | Equilibrium dissociation constant KD (human Bcl-2 protein; [6]): Binding not observed
CCOc1cccc(-c2ccc(C(C)N3CCN(c4ccc(C(=O)NS(=O)(=O)c5ccc(NCCSc6ccccc6)c([N+](=O)[O-])c5)cc4)CC3)cc2)c1 (stereo not shown) [B2Q097-01, 4-[4-[1-[4-(3-ethoxyphenyl)phenyl]ethyl]piperazin-1-yl]-N-[3-nitro-4-(2-phenylsulfanylethylamino)phenyl]sulfonylbenzamide] | 142.5 | 326.4 | 142.5 | 326.4 |  | Equilibrium dissociation constant KD (human Bcl-2 protein; [6]): Binding not observed
CCOc1cccc(-c2ccccc2CN2CCN(c3ccc(C(=O)NS(=O)(=O)c4ccc(NCCSc5ccccc5)c(C(F)(F)F)c4)cc3)CC2)c1 [B2R045-01, 4-[4-[[2-(3-ethoxyphenyl)phenyl]methyl]piperazin-1-yl]-N-[4-(2-phenylsulfanylethylamino)-3-(trifluoromethyl)phenyl]sulfonylbenzamide] |  |  |  |  |  | ASMS ratio (%) ([1]; n = 1): 4.8%; ASMS ratio (%) ([1]; n = 2): −3.4%; Equilibrium dissociation constant KD (human Bcl-2 protein; [7]): Bound; Kd (human Bcl-2 protein; [8]): > 20 µM
CCOc1cncc(-c2ccccc2CN2CCN(c3ccc(C(=O)NS(=O)(=O)c4ccc(NCCSc5ccccc5)c(C(F)(F)F)c4)cc3)CC2)c1 [B2R046-01, 4-[4-[[2-(5-Ethoxypyridin-3-yl)phenyl]methyl]piperazin-1-yl]-N-[4-(2-phenylsulfanylethylamino)-3-(trifluoromethyl)phenyl]sulfonylbenzamide] |  |  |  |  |  | ASMS ratio (%) ([1]; n = 1): −0.2%; ASMS ratio (%) ([1]; n = 2): 0.0%; Equilibrium dissociation constant KD (human Bcl-2 protein; [7]): Bound; Kd (human Bcl-2 protein; [8]): > 20 µM
CCOc1cccc(-c2ccc(CN3CCN(c4ccc(C(=O)N(C)CC56CC7CC(CC(C7)C5)C6)nn4)CC3)cc2C)c1 [B3A073-01, N-(1-adamantylmethyl)-6-[4-[[4-(3-ethoxyphenyl)-3-methylphenyl]methyl]piperazin-1-yl]-N-methylpyridazine-3-carboxamide] |  |  | 31.3 | 28.6 |  | ASMS ratio (%) n = 1 [1, 9]: 31.3%; ASMS ratio (%) n = 2 [1, 9]: 28.6%; Equilibrium dissociation constant KD (human Bcl-2 protein; [6]): Binding not observed
CN(C)C(=NC(C)(C)C)N(C)C [BTMG, 2-tert-butyl-1,1,3,3-tetramethylguanidine] |  |  |  |  | (23.6) | 
CC(C)(C)N=P(N1CCCC1)(N1CCCC1)N1CCCC1 [BTPP, tert-Butylimino-tri(pyrrolidino)phosphorane] |  |  |  |  | (28.4) | Base/pKBH^+ (CH3CN) [2, 11]: (28.4); Base/pKBH^+ (CH3CN) [2, 12]: (28.4)
CCN(C(C)C)C(C)C [DIPEA, N,N-Diisopropylethylamine] |  |  |  |  | (18.8) | pKBH+ value in CH3CN ([2]; Example 3-5-3, Aldrich web site and Chem. Eur. J. 2021, 27, 4216-4229): 18.8
CN(C)P(=NC(C)(C)C)(N(C)C)N(C)C [P1tBu, tert-Butylimino-tris(dimethylamino)phosphorane] |  |  |  |  | (26.9) | Base/pKBH+ (CH3CN) ([2]; Table 2-2): 26.9; Base/pKBH+ (CH3CN) ([2]; Table 3-4): P1tBu (26.9); Base/pKBH^+ (CH3CN) [2, 11]: (26.9); Base/pKBH^+ (CH3CN) [2, 12]: (26.9)
CCN=P(N=P(N(C)C)(N(C)C)N(C)C)(N(C)C)N(C)C [P2Et, 1-Ethyl-2,2,4,4,4-pentakis(dimethylamino)-2λ^5,4λ^5-catenadi(phosphazene)] |  |  |  |  | (32.9) | Base/pKBH+ (CH3CN) ([2]; Table 2-2): 32.9; Base/pKBH+ (CH3CN) ([2]; Table 3-1): (32.9); Base/pKBH^+ (CH3CN) ([2]; Table 3-3, transcribed from Aldrich web site): (32.9)
CN(C)P(=NC(C)(C)C)(N=P(N(C)C)(N(C)C)N(C)C)N(C)C [P2tBu, 1-tert-Butyl-2,2,4,4,4-pentakis(dimethylamino)-2λ^5,4λ^5-catenadi(phosphazene)] |  |  |  |  |  | Base/pKBH+ (CH3CN) ([2]; Table 3-1): (33.5); Base/pKBH+ (CH3CN) ([2]; Table 3-4): P2tBu (33.5)
C1CN=C2NCCCN2C1 [TBD, 1,5,7-triazabicyclo[4.4.0]dec-5-ene] |  |  |  |  | (26.0) | 
